Test results as given in paper PMC10439028, “SGLT5 is the renal transporter for 1,5-anhydroglucitol, a major player in two rare forms of neutropenia” (Cellular and Molecular Life Sciences: CMLS, 2023).

Target: T1, mouse SGLT5 (Mus musculus, UniProt Q5SWY8)
T1 construct: expressed in transfected cells; host or cells: HEK293T
T1 sequence (Q5SWY8 1-596): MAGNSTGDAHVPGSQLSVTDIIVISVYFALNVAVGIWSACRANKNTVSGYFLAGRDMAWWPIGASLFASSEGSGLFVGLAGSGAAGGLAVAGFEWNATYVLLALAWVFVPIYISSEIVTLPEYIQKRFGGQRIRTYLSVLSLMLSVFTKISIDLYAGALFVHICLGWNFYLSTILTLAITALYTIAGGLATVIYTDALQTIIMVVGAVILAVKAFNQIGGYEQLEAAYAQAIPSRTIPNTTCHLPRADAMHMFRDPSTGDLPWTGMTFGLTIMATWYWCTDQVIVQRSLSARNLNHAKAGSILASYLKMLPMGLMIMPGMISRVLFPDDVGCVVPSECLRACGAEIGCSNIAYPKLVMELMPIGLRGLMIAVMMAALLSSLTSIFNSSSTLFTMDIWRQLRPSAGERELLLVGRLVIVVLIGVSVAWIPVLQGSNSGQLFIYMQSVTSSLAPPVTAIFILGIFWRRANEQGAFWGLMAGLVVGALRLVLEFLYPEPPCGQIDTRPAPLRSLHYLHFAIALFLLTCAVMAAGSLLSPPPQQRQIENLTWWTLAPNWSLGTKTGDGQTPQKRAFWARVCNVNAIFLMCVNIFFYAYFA
Assay: Radioactive uptake assay (saturation kinetics) in HEK293T cells expressing mouse SGLT5
Assay type: cell-based
Procedure: For a typical transporter experiment we proceeded as follows. […] To minimize cell loss during the various washing steps in the radioactive uptake experiments, the wells where the cells were seeded were previously coated with poly- D-lysine, which improved their adhesion to the plastic surface of the wells. For this, each well of the 24-well plates was treated with 200 µl of a 0.01% poly-L-lysine solution for 10 min, washed 3 times with 1 ml of sterilized water and left to dry for 2 h. Only then could the 24-well plates be seeded with the appropriate cell lines and cultured overnight at 37 °C in 5% CO2.
On day two, the radioactive uptake assay could be performed. […]
Once the uptake medium was added to the cells, the plates were incubated at 37 °C in 5% CO2 during the required time. […] In each experiment, the transport activities were calculated after subtracting a “blank” value, corresponding to the radioactivity in the appropriate control cells (HEK293T cells that were stably or transiently transfected with one of the parent plasmids pEF6/MycHisA, pEF6HisB, pUB82 or pUB83 with no inserted cDNA) that were analyzed in parallel. […]
Supplementary Fig. 4: Transport activities for 1,5-anhydroglucitol and mannose of recombinant mouse SGLT4 and SGLT5 isoforms measured in HEK293T cells. […]

## OC[C@H]1OC[C@H](O)[C@@H](O)[C@@H]1O [1,5-AG, 1,5-anhydroglucitol]
30 min, Supplementary Fig. 4
  mSGLT5 Vmax: 16 pmol/min/100 000 cells
Mouse SGLT5 versus mouse SGLT4
  higher affinity of mouse SGLT5 than mouse SGLT4 for 1,5-AG: over tenfold
